Test results published in patent publication US20190224222A1, “METHOD OF INHIBITING QUORUM SENSING USING D-GALACTOSE” (Seoul National University R&DB Foundation, priority 2014, published 2019).

System: S. mutans (Sm) biofilm
Test: S. mutans biofilm formation, fluorescence staining (confocal)
Format: cell-based, Streptococcus mutans (ATCC 25175)
Settings: D-gal 200 mM vs furanone compound 20 μM
Description: Further, the inhibitory effect of D-gal on Sm biofilm formation was examined by fluorescent staining. 2 ml (2×10^7/ml) of Sm culture broth was used, and 200 mM of D-gal and 20 μM of the furanone compound were used. Biofilms formed on the cover slip were stained with fluorescent materials using the live/dead-BacLight viability kit (Invitrogen, Grand Island, N.Y., USA) and observed using a confocal microscope (Carl Zeiss, LSM 700). […] Fluorescence intensities of the obtained individual fluorescence images were quantified using ZEN 2010 program of a confocal microscope, and shown in FIG. 16.

O=C[C@H](O)[C@@H](O)[C@@H](O)[C@H](O)CO [D-gal, D-galactose]
inhibitory effect on Sm biofilm formation, in words: superior to that of the furanone compound
